Assay results reported in the NIST ThermoML archive (doi:10.1021/je200683f).
Numbers after ± are expanded uncertainties.

Settings: Liquid, Transpiration method

NC=O [formamide]
vapor or sublimation pressure (303.4 K): 0.0143 ± 0.001 kPa
vapor or sublimation pressure (308.2 K): 0.0201 ± 0.0014 kPa
vapor or sublimation pressure (313.2 K): 0.0305 ± 0.0021 kPa
vapor or sublimation pressure (318.2 K): 0.0455 ± 0.0032 kPa
vapor or sublimation pressure (323.2 K): 0.0636 ± 0.0044 kPa
vapor or sublimation pressure (328.2 K): 0.0915 ± 0.0064 kPa
vapor or sublimation pressure (333.2 K): 0.1243 ± 0.0087 kPa
vapor or sublimation pressure (338.2 K): 0.1674 ± 0.012 kPa
vapor or sublimation pressure (343.2 K): 0.2297 ± 0.016 kPa
vapor or sublimation pressure (348.2 K): 0.3121 ± 0.022 kPa
vapor or sublimation pressure (353.3 K): 0.4543 ± 0.032 kPa
vapor or sublimation pressure (358.2 K): 0.5468 ± 0.038 kPa
vapor or sublimation pressure (363.2 K): 0.7803 ± 0.054 kPa
vapor or sublimation pressure (368.1 K): 0.9855 ± 0.069 kPa
vapor or sublimation pressure (373.2 K): 1.271 ± 0.088 kPa
vapor or sublimation pressure (376 K): 1.476 ± 0.1 kPa
